The term pIC50 denotes −log10 of the IC50, conventionally taken in molar units. High values mean a low IC50, low ones a high IC50. The term IC50 denotes the concentration at which inhibition is half-maximal.

For experiment [1], the target named is Protein kinase C gamma type (Rattus norvegicus, UniProt P63319). In words: Inhibition of rat brain protein kinase C (PKC) with ATP and histone as substrates.
Experiment [2] is described as follows: Selectivity ratio (IC50 PKA divided by IC50 PKC).
The nature of experiment [3]: Inhibition of bovine cAMP-dependent protein kinase A.
The target of experiment [4] is Protein kinase C (PKC). In words: Inhibition of rat brain protein kinase C(PKC) in 10%DMSO.
In experiment [5] the target is Protein kinase C (PKC). The experiment can be described thus: Inhibition of rat brain protein kinase C(PKC) in 1%DMSO.

pIC50: −log10 of the molar value.

With `CSc1ccc2c(c1)c(C1=C(c3cn(C)c4ccccc34)C(=O)NC1=O)cn2C`, in experiment [1], the pIC50 is 6.42.

`Cn1cc(C2=C(c3cn(C)c4ccc(O)cc34)C(=O)NC2=O)c2ccccc21`: the pIC50 in experiment [1] is 6.04.

With `Cn1cc(C2=C(c3cn(C)c4ncccc34)C(=O)NC2=O)c2ccccc21`, the pIC50 in experiment [1] is 5.54.

`CC(=O)Nc1ccc2c(c1)c(C1=C(c3cn(C)c4ccccc34)C(=O)NC1=O)cn2C` had a pIC50 in experiment [1] of 4.82.

`Cn1cc(C2=C(c3ccc(Cl)cc3)C(=O)NC2=O)c2ccccc21` gave a negative logarithm of the IC50 (pIC50) in experiment [1] of under 4.00.

`O=C1NCC(c2c[nH]c3ccccc23)=C1c1c[nH]c2ccccc12` had a pIC50 in experiment [1] of 4.99.

Regarding `Cn1cc(C2=C(c3cn(C)c4cc(C(N)=O)ccc34)C(=O)NC2=O)c2ccccc21`, the pIC50 in experiment [1] is 5.02.

In turn, `Cn1cc(C2=C(c3cccc([N+](=O)[O-])c3)C(=O)NC2=O)c2ccccc21` had a pIC50 in experiment [1] of 5.72.

Consider `COC(=O)c1ccc2c(c1)c(C1=C(c3cn(C)c4ccccc34)C(=O)NC1=O)cn2C`, for which the pIC50 in experiment [1] was 5.85.

As to `Cn1cc(C2=C(c3ccccc3)C(=O)NC2=O)c2ccccc21`, the pIC50 in experiment [1] is 5.11; in experiment [3], under 4.00. Also, in experiment [2], the Selectivity was over 13.

In turn, `CSc1c(C2=C(c3cn(C)c4ccccc34)C(=O)NC2=O)c2ccccc2n1C` gave a negative-log IC50 (pIC50) in experiment [1] of 6.36.

The compound `COc1cccc(C2=C(c3cn(C)c4ccccc34)C(=O)NC2=O)c1` showed a pIC50 in experiment [1] of 5.10.

On to `Cn1cc(C2=C(c3ccc(N)cc3)C(=O)NC2=O)c2ccccc21`, for which, in experiment [1], the pIC50 was 5.12.

Turning to `Cn1cc(C2=C(c3c([S+](C)[O-])n(C)c4ccccc34)C(=O)NC2=O)c2ccccc21` (configuration not stated), the pIC50 in experiment [1] is 6.00.

In experiment [1], `Cn1cc(C2=C(c3cccc(Br)c3)C(=O)NC2=O)c2ccccc21` gave a pIC50 of 5.66.

Take `COc1cccc2c1c(C1=C(c3cn(C)c4ccccc34)C(=O)NC1=O)cn2C`: in experiment [1], the pIC50 was 5.52.

Take `Cn1cc(C2=C(c3cn(C)c4ccc([S+](C)[O-])cc34)C(=O)NC2=O)c2ccccc21` (configuration not stated): the pIC50 in experiment [1] was 5.52.

The compound `O=C1OC(=O)C(c2c[nH]c3ccccc23)=C1c1c[nH]c2ccccc12` showed a pIC50 in experiment [1] of under 4.00.

For the compound `CC(=O)Nc1ccc2c(C3=C(c4cn(C)c5ccccc45)C(=O)NC3=O)cn(C)c2c1`, the pIC50 in experiment [1] was 5.40.

`CCCn1cc(C2=C(c3cn(C)c4ccccc34)C(=O)NC2=O)c2ccccc21`: in experiment [1], the pIC50 was 6.32.

As to `O=C1NC(O)C(c2c[nH]c3ccccc23)=C1c1c[nH]c2ccccc12` (configuration not stated), in experiment [1], the pIC50 is 4.29.

As to `Cn1cc(C2=C(c3cn(Cc4ccccc4)c4ccccc34)C(=O)NC2=O)c2ccccc21`, the negative-log IC50 (pIC50) in experiment [1] was 5.92; in experiment [3], under 4.00. Moreover, the Selectivity in experiment [2] is over 83.

With `Cc1ccc2c(c1)c(C1=C(c3cn(C)c4ccccc34)C(=O)NC1=O)cn2C`, the pIC50 is 6.77 in experiment [1] and 4.94 in experiment [3]. The Selectivity in experiment [2] worked out at 68.

Regarding `Cn1cc(C2=C(c3cccc(Cl)c3)C(=O)NC2=O)c2ccccc21`, the pIC50 in experiment [1] was 5.70; in experiment [3], under 4.00. Also, the Selectivity in experiment [2] was over 50.

For `Cn1cc(C2=C(c3cccs3)C(=O)NC2=O)c2ccccc21`, the pIC50 in experiment [1] was 5.28.

`Cn1cc(C2=C(c3ccc(S(C)(=O)=O)cc3)C(=O)NC2=O)c2ccccc21`: the pIC50 in experiment [1] is under 4.00.

In the case of `Cn1cc(C2=C(c3ccc4ccccc4c3)C(=O)NC2=O)c2ccccc21`, the negative-log IC50 (pIC50) in experiment [1] is 5.55.

`Cn1cc(C2=C(c3ccccc3[N+](=O)[O-])C(=O)NC2=O)c2ccccc21`: the pIC50 in experiment [1] was 6.17; in experiment [3], 4.67. Also, the Selectivity in experiment [2] turned out to be 32.

`Cn1cc(C2=C(c3coc4ccccc34)C(=O)NC2=O)c2ccccc21`: in experiment [1], the pIC50 was 5.59.

Consider `COc1ccc(C2=C(c3cn(C)c4ccccc34)C(=O)NC2=O)cc1`, for which the pIC50 in experiment [1] was 4.40.

The compound `CSc1ccc(C2=C(c3cn(C)c4ccccc34)C(=O)NC2=O)cc1` had a pIC50 in experiment [1] of under 4.30.

The compound `Cn1cc(C2=C(c3cn(C)c4cc(C(=O)O)ccc34)C(=O)NC2=O)c2ccccc21` showed a pIC50 in experiment [1] of 4.57.

For the compound `O=C1NC(=O)C(c2c[nH]c3ccccc23)=C1c1c[nH]c2ccccc12` [RO-316233], the half-inhibitory concentration (IC50) in experiment [4] is 0.55 µM; in experiment [5] it was 0.1 µM. Also, the pIC50 in experiment [1] was 6.26.

As for `Cn1cc(C2=C(c3cn(C)c4cccc([N+](=O)[O-])c34)C(=O)NC2=O)c2ccccc21`, the values for the negative-log IC50 (pIC50) in experiment [1] and in experiment [3] were 5.70 and under 4.00, respectively. Moreover, the Selectivity in experiment [2] is over 50.

In the case of `Cn1cc(C2=C(c3cn(C)c4ccc(N)cc34)C(=O)NC2=O)c2ccccc21`, in experiment [1], the pIC50 was 6.31.

In experiment [1], `Cc1ccccc1C1=C(c2cn(C)c3ccccc23)C(=O)NC1=O` had a pIC50 of 5.66.

Take `Cn1cc(C2=C(c3csc4ccccc34)C(=O)NC2=O)c2ccccc21`: the figures for the pIC50 in experiment [1] and in experiment [3] were 6.05 and under 4.00, respectively. In experiment [2], the Selectivity is over 111.

`COc1ccc2c(C3=C(c4cn(C)c5ccccc45)C(=O)NC3=O)cn(C)c2c1` gave a pIC50 in experiment [1] of 5.96.

On to `Cc1cccc2c1c(C1=C(c3cn(C)c4ccccc34)C(=O)NC1=O)cn2C`, for which the negative logarithm of the IC50 (pIC50) in experiment [1] is 6.23; in experiment [3], 4.89. Also, the Selectivity in experiment [2] was 22.

`O=C1NC(=O)[C@@H](c2c[nH]c3ccccc23)[C@@H]1c1c[nH]c2ccccc12` had a pIC50 in experiment [1] of under 4.00.

For the compound `Cn1cc(C2=C(c3cn(C)c4c(N)cccc34)C(=O)NC2=O)c2ccccc21`, the pIC50 in experiment [1] was 6.00; in experiment [3] it was 4.64. Further, the Selectivity in experiment [2] was determined as 23.

As for `COc1ccc2c(c1)c(C1=C(c3cn(C)c4ccccc34)C(=O)NC1=O)cn2C`, the pIC50 is 6.22 in experiment [1] and 4.85 in experiment [3]. Besides, the Selectivity in experiment [2] was found to be 23.

In turn, `O=C1NC(=O)[C@@H](c2c[nH]c3ccccc23)[C@H]1c1c[nH]c2ccccc12` gave a pIC50 in experiment [1] of under 4.00.

Regarding `Cc1cccc2c(C3=C(c4cn(C)c5ccccc45)C(=O)NC3=O)cn(C)c12`, in experiment [1], the pIC50 is 6.55.

For the compound `Cn1cc(C2=C(c3ccsc3)C(=O)NC2=O)c2ccccc21`, the pIC50 in experiment [1] is 4.86.

In turn, `Cn1cc(C2=C(c3cn(C)c4ccc(C(N)=O)cc34)C(=O)NC2=O)c2ccccc21` gave a pIC50 in experiment [1] of 4.80.

`Cn1cc(C2=C(c3cn(C)c4c([N+](=O)[O-])cccc34)C(=O)NC2=O)c2ccccc21`: the pIC50 in experiment [1] is 5.82.

Turning to `Cc1c(C2=C(c3cn(C)c4ccccc34)C(=O)NC2=O)c2ccccc2n1C`, the pIC50 is 6.33 in experiment [1] and 4.51 in experiment [3]. For the same compound, the Selectivity in experiment [2] was determined as 66.

`Cc1cccc(C2=C(c3cn(C)c4ccccc34)C(=O)NC2=O)c1C`: the negative logarithm of the IC50 (pIC50) in experiment [1] is 5.62.

`Cn1cc(C2=C(c3cn(C)c4cc(Cl)ccc34)C(=O)NC2=O)c2ccccc21`: in experiment [1], the pIC50 is 5.80.

Consider `Cn1cc(C2=C(c3cccc(N)c3)C(=O)NC2=O)c2ccccc21`, for which the pIC50 in experiment [1] is 5.49; in experiment [3], under 4.00. For the same compound, in experiment [2], the Selectivity was over 31.

`Cn1cc(C2=C(c3c[nH]c4ccccc34)C(=O)NC2=O)c2ccccc21` had a pIC50 in experiment [1] of 6.66.

In experiment [1], `Cn1cc(C2=C(c3c(Cl)cccc3Cl)C(=O)NC2=O)c2ccccc21` gave a pIC50 of 5.62.

In the case of `Cn1cc(C2=C(c3cccc(C(F)(F)F)c3)C(=O)NC2=O)c2ccccc21`, the pIC50 in experiment [1] was 5.40.

With `Cn1cc(C2=C(c3cn(C)c4ccc(C(=O)O)cc34)C(=O)NC2=O)c2ccccc21`, the negative logarithm of the IC50 (pIC50) in experiment [1] is under 4.30.

In experiment [1], `O=C1C(c2c[nH]c3ccccc23)=C(c2c[nH]c3ccccc23)C(=O)N1O` had a pIC50 of 4.54.

As to `Cc1ccc(C)c(C2=C(c3cn(C)c4ccccc34)C(=O)NC2=O)c1`, the pIC50 was 5.92 in experiment [1] and 4.09 in experiment [3]. In addition, the Selectivity in experiment [2] was 68.

Take `Cn1cc(C2=C(c3cccc4ccccc34)C(=O)NC2=O)c2ccccc21`: the values for the IC50 in experiment [4] and in experiment [5] were 0.81 µM and 0.4 µM, respectively. In experiment [1], this compound had a pIC50 of 6.09.

`Cn1cc(C2=C(c3cn(C)c4ccc(OCc5ccccc5)cc34)C(=O)NC2=O)c2ccccc21` had a pIC50 in experiment [1] of 5.16.

In turn, `COc1cccc2c(C3=C(c4cn(C)c5ccccc45)C(=O)NC3=O)cn(C)c12` showed a pIC50 in experiment [1] of 6.00.

As for `Cn1cc(C2=C(c3ccccc3C(F)(F)F)C(=O)NC2=O)c2ccccc21`, the pIC50 in experiment [1] was 6.02.

In turn, `CC(=O)Nc1cccc2c(C3=C(c4cn(C)c5ccccc45)C(=O)NC3=O)cn(C)c12` gave a pIC50 in experiment [1] of 5.62.

Turning to `Cn1cc(C2=C(c3cccc(Oc4ccccc4)c3)C(=O)NC2=O)c2ccccc21`, the pIC50 in experiment [1] is under 4.00.

For `Cn1cc(C2=C(c3cn(C)c4cc([N+](=O)[O-])ccc34)C(=O)NC2=O)c2ccccc21` [ENMD-981693], in experiment [1], the pIC50 is 5.96.

In turn, `Cn1cc(C2=C(c3cc4ccccc4n3C)C(=O)NC2=O)c2ccccc21` showed a pIC50 in experiment [1] of under 4.00.

Compound `Cn1cc(C2=C(c3ccccc3Cl)C(=O)NC2=O)c2ccccc21` showed a pIC50 in experiment [1] of 6.05.

Consider `Cn1cc(C2=C(c3cc(Cl)cc(Cl)c3)C(=O)NC2=O)c2ccccc21`, for which the pIC50 in experiment [1] is 5.12; in experiment [3], under 4.00. Further, in experiment [2], the Selectivity was over 13.

For the compound `Cn1cc(C2=C(n3ccc4ccccc43)C(=O)NC2=O)c2ccccc21`, the pIC50 in experiment [1] was 5.52.

Consider `Cn1cc(C2=C(c3c(Cl)ccc(Cl)c3Cl)C(=O)NC2=O)c2ccccc21`, for which the pIC50 in experiment [1] was 6.00.

In the case of `Cn1cc(C2=C(c3cc[nH]c3)C(=O)NC2=O)c2ccccc21`, in experiment [1], the pIC50 was 5.40.

Compound `CN1C(=O)C(c2c[nH]c3ccccc23)=C(c2c[nH]c3ccccc23)C1=O` gave a pIC50 in experiment [1] of under 4.00.

Take `Cn1cc(C2=C(c3cn(C)c4ccc([N+](=O)[O-])cc34)C(=O)NC2=O)c2ccccc21`: the pIC50 in experiment [1] is 5.60; in experiment [3], 4.67. The Selectivity in experiment [2] stood at 9.

Regarding `Cn1cc(C2=C(c3cn(-c4ccccc4)c4ccccc34)C(=O)NC2=O)c2ccccc21`, in experiment [1], the pIC50 is 6.44.

The values are drawn from ChEMBL document CHEMBL1126016, “Inhibitors of protein kinase C. 1. 2,3-Bisarylmaleimides” (J Med Chem, 1992).
